For assay [1], the target named is T1, Taste receptor type 2 member 10 (Homo sapiens) (UniProt Q9NYW0).
T1 sequence (whole entry): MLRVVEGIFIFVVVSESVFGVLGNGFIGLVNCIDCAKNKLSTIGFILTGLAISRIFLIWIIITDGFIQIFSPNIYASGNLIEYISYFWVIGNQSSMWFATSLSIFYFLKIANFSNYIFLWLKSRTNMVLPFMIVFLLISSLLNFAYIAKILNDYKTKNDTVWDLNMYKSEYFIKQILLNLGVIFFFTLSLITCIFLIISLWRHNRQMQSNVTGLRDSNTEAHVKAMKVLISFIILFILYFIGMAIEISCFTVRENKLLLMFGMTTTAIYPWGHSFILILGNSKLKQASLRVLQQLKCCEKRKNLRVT
As to the kind of experiment: Activation of full-length human TAS2R10 expressed in HEK293T/Galpha16-gustducin 44 cells assessed as effect on calcium flux by measuring deltaF/F0 ratio at 12.5 mM by Fluo-4 dye based FLIPR assay. In kind it is functional, cell-based. Background: A change in cytosolic calcium serves as a functional read-out for many receptors and channels.

Assay [2] has as its target T1, Taste receptor type 2 member 10 (Homo sapiens). As to the kind of experiment: Activation of full-length human TAS2R10 expressed in HEK293T/Galpha16-gustducin 44 cells assessed as effect on calcium flux by measuring deltaF/F0 ratio at 1.5625 mM by Fluo-4 dye based FLIPR assay. The format is functional, cell-based.
In assay [3] the target is T2, Taste receptor type 2 member 46 (Homo sapiens) (UniProt P59540).
T2 sequence (whole entry): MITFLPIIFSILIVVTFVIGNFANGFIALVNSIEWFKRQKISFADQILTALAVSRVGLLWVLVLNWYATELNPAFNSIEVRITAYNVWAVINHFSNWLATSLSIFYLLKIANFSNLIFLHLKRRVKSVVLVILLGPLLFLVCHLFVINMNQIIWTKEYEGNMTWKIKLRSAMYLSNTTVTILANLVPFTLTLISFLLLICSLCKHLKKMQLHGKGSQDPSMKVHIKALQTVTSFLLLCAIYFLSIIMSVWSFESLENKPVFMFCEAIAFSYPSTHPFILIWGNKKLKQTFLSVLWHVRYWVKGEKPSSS
The assay can be described thus: Activation of full-length human TAS2R46 expressed in HEK293T/Galpha16-gustducin 44 cells assessed as effect on calcium flux by measuring deltaF/F0 ratio by Fluo-4 dye based FLIPR assay. In kind it is functional, cell-based.

The target of assay [4] is T3, Taste receptor type 2 member 1 (Homo sapiens) (UniProt Q9NYW7).
T3 sequence (whole entry): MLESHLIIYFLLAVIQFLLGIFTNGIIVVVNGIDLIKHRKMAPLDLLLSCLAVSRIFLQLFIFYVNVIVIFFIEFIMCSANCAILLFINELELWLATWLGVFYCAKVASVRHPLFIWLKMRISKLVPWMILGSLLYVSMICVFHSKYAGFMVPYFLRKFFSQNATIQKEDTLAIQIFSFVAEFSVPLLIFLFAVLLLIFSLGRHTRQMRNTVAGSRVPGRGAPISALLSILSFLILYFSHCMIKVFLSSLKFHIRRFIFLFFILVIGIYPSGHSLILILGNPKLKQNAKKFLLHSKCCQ
The assay can be described thus: Activation of full-length human TAS2R1 expressed in HEK293T/Galpha16-gustducin 44 cells assessed as effect on calcium flux by measuring deltaF/F0 ratio at 25 mM by Fluo-4 dye based FLIPR assay. In kind it is functional, cell-based.

Assay [5] concerns the target T3, Taste receptor type 2 member 1 (Homo sapiens). The assay can be described thus: (§1) Activation of full-length human TAS2R1 expressed in HEK293T/Galpha16-gustducin 44 cells assessed as effect on calcium flux by measuring deltaF/F0 ratio by Fluo-4 dye based FLIPR assay. The format is functional, cell-based.
Assay [6] addresses T4, Taste receptor type 2 member 1 (Homo sapiens, UniProt Q9NYW7).
T4 sequence (Q9NYW7 whole entry): T3 sequence (whole entry)
The description is as §1. In kind it is functional, cell-based.

For assay [7], the target named is T2, Taste receptor type 2 member 46 (Homo sapiens). The assay can be described thus: Activation of full-length human TAS2R46 expressed in HEK293T/Galpha16-gustducin 44 cells assessed as effect on calcium flux by measuring deltaF/F0 ratio at 3.125 mM by Fluo-4 dye based FLIPR assay. The format is functional, cell-based.
Assay [8] has as its target T3, Taste receptor type 2 member 1 (Homo sapiens). As to the kind of experiment: Activation of full-length human TAS2R1 expressed in HEK293T/Galpha16-gustducin 44 cells assessed as effect on calcium flux by measuring deltaF/F0 ratio at 0.7813 mM by Fluo-4 dye based FLIPR assay. In kind it is functional, cell-based.
In assay [9] the target is T2, Taste receptor type 2 member 46 (Homo sapiens). As to the kind of experiment: Activation of full-length human TAS2R46 expressed in HEK293T/Galpha16-gustducin 44 cells assessed as effect on calcium flux by measuring deltaF/F0 ratio at 6.25 mM by Fluo-4 dye based FLIPR assay. The format is functional, cell-based.
Assay [10] deals with T5, Taste receptor type 2 member 31 (Homo sapiens) (UniProt P59538).
T5 sequence (whole entry): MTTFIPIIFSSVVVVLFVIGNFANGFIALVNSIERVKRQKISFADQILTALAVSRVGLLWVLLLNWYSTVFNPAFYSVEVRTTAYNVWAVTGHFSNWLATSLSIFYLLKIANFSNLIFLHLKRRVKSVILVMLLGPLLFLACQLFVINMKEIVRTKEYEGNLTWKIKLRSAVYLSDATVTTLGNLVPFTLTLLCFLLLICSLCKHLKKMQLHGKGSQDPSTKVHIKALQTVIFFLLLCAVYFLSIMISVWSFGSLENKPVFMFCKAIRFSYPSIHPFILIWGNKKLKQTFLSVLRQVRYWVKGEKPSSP
The assay can be described thus: Activation of full-length human TAS2R44 expressed in HEK293T/Galpha16-gustducin 44 cells assessed as effect on calcium flux by measuring deltaF/F0 ratio at 25 mM by Fluo-4 dye based FLIPR assay (reference value: […] +/ - 0.017). In kind it is functional, cell-based.

The target in assay [11] is T5, Taste receptor type 2 member 31 (Homo sapiens). The assay can be described thus: Activation of full-length human TAS2R44 expressed in HEK293T/Galpha16-gustducin 44 cells assessed as effect on calcium flux by measuring deltaF/F0 ratio at 3.125 mM by Fluo-4 dye based FLIPR assay (reference value: […] +/ - 0.001). The format is functional, cell-based.
Assay [12] addresses T2, Taste receptor type 2 member 46 (Homo sapiens). The assay can be described thus: Activation of full-length human TAS2R46 expressed in HEK293T/Galpha16-gustducin 44 cells assessed as effect on calcium flux by measuring deltaF/F0 ratio at 50 mM by Fluo-4 dye based FLIPR assay. In kind it is functional, cell-based.
In assay [13] the target is T3, Taste receptor type 2 member 1 (Homo sapiens). The assay can be described thus: Activation of full-length human TAS2R1 expressed in HEK293T/Galpha16-gustducin 44 cells assessed as effect on calcium flux by measuring deltaF/F0 ratio at 3.125 mM by Fluo-4 dye based FLIPR assay. In kind it is functional, cell-based.
For assay [14] the target is unchanged. The assay can be described thus: Activation of full-length human TAS2R1 expressed in HEK293T/Galpha16-gustducin 44 cells assessed as effect on calcium flux by measuring deltaF/F0 ratio at 100 mM by Fluo-4 dye based FLIPR assay. In kind it is functional, cell-based.
The species named for a further assay is Homo sapiens. As to the kind of experiment: Induction of bitter sensitivity in bitter sensitive human panelists tasting solution containing 3 mM compound in absence of 13 ppm (E)-4-(2,2,3-trimethylcyclopent-3-enyl)but-2-enoic acid. The format is functional, organism-based.
Assay [15] has as its target T2, Taste receptor type 2 member 46 (Homo sapiens). The assay can be described thus: Activation of full-length human TAS2R46 expressed in HEK293T/Galpha16-gustducin 44 cells assessed as effect on calcium flux by measuring deltaF/F0 ratio at 0.7813 mM by Fluo-4 dye based FLIPR assay. In kind it is functional, cell-based.
For assay [16], the target named is T3, Taste receptor type 2 member 1 (Homo sapiens). As to the kind of experiment: Activation of full-length human TAS2R1 expressed in HEK293T/Galpha16-gustducin 44 cells assessed as effect on calcium flux by measuring deltaF/F0 ratio at 6.25 mM by Fluo-4 dye based FLIPR assay. In kind it is functional, cell-based.

Molecules are shown by their SMILES. Calls of active or inactive are those of the source. No cut-off for these calls is given here.

Regarding `OC[C@H]1O[C@H](O[C@]2(CCl)O[C@H](CCl)[C@@H](O)[C@@H]2O)[C@H](O)[C@@H](O)[C@H]1Cl` [SUCRALOSE], the Ratio amounted to 0.059 in [1]; 0.047 in [2]; 0.104 in assay [4]; 0.036 in assay [7]; 0.05 in assay [8]; 0.057 in assay [9]. Besides, the Ratio in [10] is 0.197; in assay [11] it was 0.043; in assay [12], 0.171; in assay [13] it was 0.059; in assay [14], 0.518; in assay [15] it was 0.038. Also, the Ratio in assay [16] came out at 0.061. Also, the Activity result in assay [3] and in assay [5] was “Dose-dependent effect” throughout. Moreover, the 50% effective concentration (EC50) (usually the midpoint of the concentration-response curve) in assay [6] stood at 36.3 mM. In addition, in the assay filed under Homo sapiens, the outcome was Active.
